Remaining binding data for 1 compound are collected here from paper PMC7206119, “RIP1 inhibition blocks inflammatory diseases but not tumor growth or metastases” (Cell Death and Differentiation, 2019).

Molecules are shown by their SMILES.

Some targets named below: FLT3(D835Y) (Homo sapiens, UniProt P36888, D835Y); MELK (Homo sapiens, UniProt Q14680); EGFR(L861Q) (Homo sapiens, UniProt P00533, L861Q); CAMK1D (Homo sapiens, UniProt Q8IU85); DAPK1 (Homo sapiens, UniProt P53355); PIK3CA(E545K) (Homo sapiens, UniProt P42336, E545K); RIPK1 (Homo sapiens, UniProt Q13546); FLT4 (Homo sapiens, UniProt P35916); CSNK1E (Homo sapiens, UniProt P49674); MYO3B (Homo sapiens, UniProt Q8WXR4); PIK3CA(H1047L) (Homo sapiens, UniProt P42336, H1047L); CAMK2G (Homo sapiens, UniProt Q13555).

Common to all, as to assay: biochemical
Set-up in all cases: DiscoverX kinase panel, active-site competition binding (KINOMEscan type), percent of control at one concentration
Holding throughout (conditions): competition binding, percent of control

In assay [1] the target is T1, RSK2(Kin.Dom.1-N-terminal) (Homo sapiens, UniProt P51812).
T1 construct: gene RPS6KA3; Kin.Dom.1-N-terminal

For the next assay, the target named is T2, MLK1 (Homo sapiens, UniProt P80192).
T2 construct: gene MAP3K9

The target of assay [2] is T3, RPS6KA4(Kin.Dom.2-C-terminal) (Homo sapiens, UniProt O75676).
T3 construct: Kin.Dom.2-C-terminal

The next assay deals with T4, MRCKB (Homo sapiens, UniProt Q9Y5S2).
T4 construct: gene CDC42BPB

In a further assay the target is T5, MEK4 (Homo sapiens, UniProt P45985).
T5 construct: gene MAP2K4

A further assay concerns the target T6, CTK (Homo sapiens, UniProt P42679).
T6 construct: gene MATK

The target of a further assay is T7, ABL1-phosphorylated (Homo sapiens, UniProt P00519).
T7 construct: phosphorylated

The next assay has as its target T8, FAK (Homo sapiens, UniProt Q05397).
T8 construct: gene PTK2

Assay [3] deals with T9, ABL1(T315I)-nonphosphorylated (Homo sapiens, UniProt P00519, T315I).
T9 construct: nonphosphorylated

Sequence of RIPK1 (Q13546 whole entry): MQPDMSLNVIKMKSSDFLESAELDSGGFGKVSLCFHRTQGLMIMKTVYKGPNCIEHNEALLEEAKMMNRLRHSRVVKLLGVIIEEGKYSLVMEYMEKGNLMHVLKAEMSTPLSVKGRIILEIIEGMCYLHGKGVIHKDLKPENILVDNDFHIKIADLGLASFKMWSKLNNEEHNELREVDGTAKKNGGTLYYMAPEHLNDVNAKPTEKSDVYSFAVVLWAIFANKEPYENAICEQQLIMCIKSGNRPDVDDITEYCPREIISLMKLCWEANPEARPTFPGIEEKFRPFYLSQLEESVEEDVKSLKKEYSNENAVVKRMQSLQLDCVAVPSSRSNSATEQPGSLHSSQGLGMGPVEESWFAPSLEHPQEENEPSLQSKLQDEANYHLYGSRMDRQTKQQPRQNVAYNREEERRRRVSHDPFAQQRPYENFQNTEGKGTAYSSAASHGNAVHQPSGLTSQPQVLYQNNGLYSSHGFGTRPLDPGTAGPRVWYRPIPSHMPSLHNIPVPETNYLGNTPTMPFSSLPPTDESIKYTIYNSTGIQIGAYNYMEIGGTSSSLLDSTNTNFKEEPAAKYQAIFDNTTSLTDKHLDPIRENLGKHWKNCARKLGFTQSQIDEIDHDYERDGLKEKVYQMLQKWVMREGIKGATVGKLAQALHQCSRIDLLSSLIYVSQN
T1 sequence (P51812 whole entry): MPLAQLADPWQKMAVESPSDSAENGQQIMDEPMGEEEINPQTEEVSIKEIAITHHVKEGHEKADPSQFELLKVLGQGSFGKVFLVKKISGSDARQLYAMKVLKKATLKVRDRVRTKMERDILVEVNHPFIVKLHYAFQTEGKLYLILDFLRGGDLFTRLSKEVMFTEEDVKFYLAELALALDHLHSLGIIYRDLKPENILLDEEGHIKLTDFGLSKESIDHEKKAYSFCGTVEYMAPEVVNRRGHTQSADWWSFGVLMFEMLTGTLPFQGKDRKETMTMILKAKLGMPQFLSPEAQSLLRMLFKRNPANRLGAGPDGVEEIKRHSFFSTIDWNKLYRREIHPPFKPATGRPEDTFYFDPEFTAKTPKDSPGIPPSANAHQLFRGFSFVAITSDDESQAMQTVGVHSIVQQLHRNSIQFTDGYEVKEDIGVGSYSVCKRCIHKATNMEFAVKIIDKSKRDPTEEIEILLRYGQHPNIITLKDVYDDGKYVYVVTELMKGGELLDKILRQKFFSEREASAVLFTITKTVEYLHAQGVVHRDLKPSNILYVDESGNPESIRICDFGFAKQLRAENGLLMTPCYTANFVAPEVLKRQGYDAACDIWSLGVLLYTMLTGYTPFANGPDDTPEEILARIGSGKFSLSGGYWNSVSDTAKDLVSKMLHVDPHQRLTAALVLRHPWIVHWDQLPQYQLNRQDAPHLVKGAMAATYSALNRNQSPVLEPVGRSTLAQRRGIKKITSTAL
Sequence of FLT4 (P35916 whole entry): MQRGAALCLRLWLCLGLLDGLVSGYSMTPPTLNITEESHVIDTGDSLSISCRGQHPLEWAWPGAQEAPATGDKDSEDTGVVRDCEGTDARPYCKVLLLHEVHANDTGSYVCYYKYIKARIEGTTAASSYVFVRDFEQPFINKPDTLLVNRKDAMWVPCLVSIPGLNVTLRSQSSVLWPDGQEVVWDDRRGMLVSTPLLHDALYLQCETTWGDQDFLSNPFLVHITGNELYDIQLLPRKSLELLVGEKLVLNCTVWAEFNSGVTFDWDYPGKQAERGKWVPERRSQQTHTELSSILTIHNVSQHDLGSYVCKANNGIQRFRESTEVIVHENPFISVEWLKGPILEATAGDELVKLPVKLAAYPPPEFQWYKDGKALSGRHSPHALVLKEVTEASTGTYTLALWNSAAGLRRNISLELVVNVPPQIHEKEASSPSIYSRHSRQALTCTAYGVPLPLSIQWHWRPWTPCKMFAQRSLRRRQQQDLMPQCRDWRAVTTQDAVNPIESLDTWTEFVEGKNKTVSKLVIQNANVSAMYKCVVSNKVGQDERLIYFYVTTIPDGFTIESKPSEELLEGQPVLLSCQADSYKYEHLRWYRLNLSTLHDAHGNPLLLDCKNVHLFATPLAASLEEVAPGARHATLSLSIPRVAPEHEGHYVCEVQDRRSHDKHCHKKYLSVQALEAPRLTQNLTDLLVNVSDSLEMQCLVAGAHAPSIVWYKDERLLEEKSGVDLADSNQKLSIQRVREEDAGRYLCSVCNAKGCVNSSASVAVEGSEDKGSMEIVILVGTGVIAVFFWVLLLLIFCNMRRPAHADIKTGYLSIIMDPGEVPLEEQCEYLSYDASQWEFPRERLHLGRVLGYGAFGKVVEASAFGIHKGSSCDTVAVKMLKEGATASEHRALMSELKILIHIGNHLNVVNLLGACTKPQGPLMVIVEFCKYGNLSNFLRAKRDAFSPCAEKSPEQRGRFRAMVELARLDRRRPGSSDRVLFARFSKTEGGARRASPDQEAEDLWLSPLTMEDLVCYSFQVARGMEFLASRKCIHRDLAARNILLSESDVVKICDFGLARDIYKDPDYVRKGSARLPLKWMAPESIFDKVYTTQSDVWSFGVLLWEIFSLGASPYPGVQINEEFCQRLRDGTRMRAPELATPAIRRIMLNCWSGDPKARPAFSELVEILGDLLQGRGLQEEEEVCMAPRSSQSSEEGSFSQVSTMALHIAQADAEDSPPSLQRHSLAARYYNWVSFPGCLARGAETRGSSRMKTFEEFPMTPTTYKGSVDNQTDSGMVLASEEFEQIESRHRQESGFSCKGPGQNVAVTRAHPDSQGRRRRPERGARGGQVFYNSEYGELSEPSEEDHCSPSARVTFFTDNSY
Sequence of MELK (Q14680 whole entry): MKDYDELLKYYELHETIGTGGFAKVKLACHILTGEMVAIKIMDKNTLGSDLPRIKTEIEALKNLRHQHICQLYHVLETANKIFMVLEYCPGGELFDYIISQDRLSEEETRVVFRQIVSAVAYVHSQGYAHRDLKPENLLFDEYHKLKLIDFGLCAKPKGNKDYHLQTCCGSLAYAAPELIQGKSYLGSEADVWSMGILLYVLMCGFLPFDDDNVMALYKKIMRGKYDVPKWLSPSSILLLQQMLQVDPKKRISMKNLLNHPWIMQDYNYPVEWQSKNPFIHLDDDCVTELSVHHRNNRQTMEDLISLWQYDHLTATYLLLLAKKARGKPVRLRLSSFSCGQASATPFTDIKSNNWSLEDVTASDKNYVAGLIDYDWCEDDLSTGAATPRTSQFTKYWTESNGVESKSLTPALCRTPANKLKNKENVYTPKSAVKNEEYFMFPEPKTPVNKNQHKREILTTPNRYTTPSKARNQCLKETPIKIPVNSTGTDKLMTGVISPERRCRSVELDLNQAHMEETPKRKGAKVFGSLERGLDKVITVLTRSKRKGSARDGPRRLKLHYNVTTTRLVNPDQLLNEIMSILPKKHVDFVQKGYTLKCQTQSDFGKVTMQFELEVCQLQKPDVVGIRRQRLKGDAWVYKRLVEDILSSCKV
T5 sequence (P45985 whole entry): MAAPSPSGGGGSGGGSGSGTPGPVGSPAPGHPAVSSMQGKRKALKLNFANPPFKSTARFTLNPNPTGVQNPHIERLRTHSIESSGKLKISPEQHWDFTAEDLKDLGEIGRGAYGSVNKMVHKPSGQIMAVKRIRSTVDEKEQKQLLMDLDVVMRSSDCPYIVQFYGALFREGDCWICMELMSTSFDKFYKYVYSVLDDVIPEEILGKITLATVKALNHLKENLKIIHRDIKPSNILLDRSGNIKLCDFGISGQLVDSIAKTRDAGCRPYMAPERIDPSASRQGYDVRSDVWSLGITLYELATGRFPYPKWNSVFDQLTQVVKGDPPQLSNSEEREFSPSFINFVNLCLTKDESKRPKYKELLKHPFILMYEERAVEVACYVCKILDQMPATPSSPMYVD
T6 sequence (P42679 whole entry): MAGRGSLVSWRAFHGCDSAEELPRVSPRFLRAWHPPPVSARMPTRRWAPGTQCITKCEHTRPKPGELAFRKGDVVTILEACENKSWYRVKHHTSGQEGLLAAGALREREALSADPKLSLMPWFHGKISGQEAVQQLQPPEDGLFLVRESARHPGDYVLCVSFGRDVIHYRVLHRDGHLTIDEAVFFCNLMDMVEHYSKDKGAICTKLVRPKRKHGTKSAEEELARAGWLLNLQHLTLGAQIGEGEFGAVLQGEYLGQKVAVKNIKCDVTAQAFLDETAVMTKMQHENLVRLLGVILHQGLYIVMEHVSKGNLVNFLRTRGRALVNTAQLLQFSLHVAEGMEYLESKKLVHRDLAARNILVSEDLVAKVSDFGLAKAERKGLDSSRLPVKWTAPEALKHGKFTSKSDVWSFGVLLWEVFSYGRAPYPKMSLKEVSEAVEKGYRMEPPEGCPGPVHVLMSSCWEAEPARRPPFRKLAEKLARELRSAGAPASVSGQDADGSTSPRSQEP
Sequence of CAMK2G (Q13555 whole entry): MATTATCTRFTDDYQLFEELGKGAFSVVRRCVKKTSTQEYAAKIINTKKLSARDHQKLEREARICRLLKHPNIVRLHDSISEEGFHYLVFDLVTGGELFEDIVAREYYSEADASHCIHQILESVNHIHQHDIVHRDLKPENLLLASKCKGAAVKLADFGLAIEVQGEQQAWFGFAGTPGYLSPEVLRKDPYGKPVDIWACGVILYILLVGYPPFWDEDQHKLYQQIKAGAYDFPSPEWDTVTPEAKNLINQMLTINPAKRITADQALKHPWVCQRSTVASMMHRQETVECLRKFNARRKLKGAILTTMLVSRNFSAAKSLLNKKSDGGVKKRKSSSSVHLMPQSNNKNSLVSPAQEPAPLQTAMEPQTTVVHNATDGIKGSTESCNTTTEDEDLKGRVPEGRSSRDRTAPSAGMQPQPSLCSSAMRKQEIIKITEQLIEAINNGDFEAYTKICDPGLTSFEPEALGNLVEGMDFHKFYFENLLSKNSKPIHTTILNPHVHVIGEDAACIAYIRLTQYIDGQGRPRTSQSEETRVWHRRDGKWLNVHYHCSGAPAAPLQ

For `COc1cc2c(cn1)N(C)C(=O)[C@@H](NC(=O)c1nc3n(n1)[C@H](c1ccccc1)CC3)CC2` [GNE684, (S)-N-((S)-7-methoxy-1-methyl-2-oxo-2,3,4,5-tetrahydro-1H-pyrido[3,4-b]azepin-3-yl)-5-phenyl-6,7-dihydro-5H-pyrrolo[1,2-b][1,2,4]triazole-2-carboxamide], the remaining binding at 10 µM in assay [1] was 65%; at MLK1, 99%; in assay [2], 100%; at FLT3(D835Y) it was 100%; at MRCKB, 100%; on MELK it was 93%. Further, the remaining binding at 10 µM on MEK4 came out at 88%; at EGFR(L861Q), 96%; at CAMK1D it was 98%; at CTK it was 93%; at DAPK1 it was 88%; on ABL1-phosphorylated, 84%. In addition, the remaining binding at 10 µM worked out at 55% at PIK3CA(E545K); 0% on RIPK1; 96% on FLT4; 74% on CSNK1E; 85% at FAK; 89% at MYO3B. The remaining binding at 10 µM on PIK3CA(H1047L) was 95%; in assay [3], 73%; at CAMK2G, 100%.
